In US9408856B2, “Topical steroidal formulations” (Temple University—Of The Commonwealth System of Higher …, priority 2008, dated 2016):
Values joined by “and” are separate entries in the source; they are usually repeats but may differ in a detail not shown here. Equal entries are not always repeated.

System: TPA-stimulated epidermal DNA synthesis in mouse epidermis
Assay: TPA-induced epidermal DNA synthesis in mouse epidermis, transdermal fluasterone
Format: in vivo, CD-1 mice
Conditions: 20 h; for μg DNA/0.2 mL / cpm / corrected cpm / μg DNA/0.2: single mice; for cpm/μg DNA: single mice and group mean
[1] = Cremophor EL solution, 1.9 mg/kg transdermal (abdomen) 1 h before 2 μg TPA (back), 1.9 mg/kg
[2] = Cremophor EL solution, 5 mg/kg transdermal (abdomen) 1 h before 2 μg TPA (back), 5 mg/kg
[3] = Cremophor EL:ethanol (50:50 v/v) solution, 1.9 mg/kg transdermal (abdomen) 1 h before 2 μg TPA (back), 1.9 mg/kg
[4] = Cremophor EL:ethanol (50:50 v/v) solution, 2.5 mg/kg transdermal (abdomen) 1 h before 2 μg TPA (back), 2.5 mg/kg
[5] = Cremophor EL:ethanol (50:50 v/v) solution, 5 mg/kg transdermal (abdomen) 1 h before 2 μg TPA (back), 5 mg/kg
[6] = Tween 80:ethanol (50:50 v/v) solution, 1.9 mg/kg transdermal (abdomen) 1 h before 2 μg TPA (back), 1.9 mg/kg
[7] = carbitol solution, 1.25 mg/kg transdermal (abdomen) 1 h before 2 μg TPA (back), 1.25 mg/kg
[8] = carbitol solution, 2.5 mg/kg transdermal (abdomen) 1 h before 2 μg TPA (back), 2.5 mg/kg

In the case of C[C@]12CCCCC1=CC[C@@H]1[C@@H]2CC[C@]2(C)C(=O)[C@H](F)C[C@@H]12 [Fluasterone, 16α-fluoro-5-androsten-17-one], the “μg DNA/0.2 mL” value (Cremophor EL solution, 1.25 mg/kg transdermal (abdomen) 1 h before 2 μg TPA (back), 1.25 mg/kg) is reported as 28.1 μg DNA/0.2 mL and 14.9 μg DNA/0.2 mL, the “cpm/μg DNA” value [1] is reported as 161.0 cpm/μg DNA and 270.3 cpm/μg DNA and 215.7 ± 77.3 cpm/μg DNA and the “μg DNA/0.2 mL” value [1] is reported as 15.4 μg DNA/0.2 mL and 20.1 μg DNA/0.2 mL. The “μg DNA/0.2 mL” value (Cremophor EL solution, 2.5 mg/kg transdermal (abdomen) 1 h before 2 μg TPA (back), 2.5 mg/kg) was 8.6 μg DNA/0.2 mL and 10.1 μg DNA/0.2 mL, the cpm [2] was 1,015 cpm and 1,686 cpm and the “μg DNA/0.2 mL” value [2] was 8.4 μg DNA/0.2 mL and 11.2 μg DNA/0.2 mL. The “cpm/μg DNA” value [3] was 207.8 cpm/μg DNA and 160.4 cpm/μg DNA, the corrected cpm [3] was 5,965 cpm and 4,025 cpm and the cpm [3] was 5,990 cpm and 4,050 cpm. The “μg DNA/0.2” value [3] was 28.7 μg DNA/0.2 and 25.1 μg DNA/0.2, the “cpm/μg DNA” value [4] was 423.2 cpm/μg DNA and 410.7 cpm/μg DNA and 462.8 cpm/μg DNA and the corrected cpm [4] was 7,068 cpm and 6,243 cpm and 6,341 cpm. The cpm [4] was 7,093 cpm and 6,268 cpm and 6,366 cpm, the “μg DNA/0.2” value [4] was 16.7 μg DNA/0.2 and 15.2 μg DNA/0.2 and 13.7 μg DNA/0.2 and the “cpm/μg DNA” value [5] was 125.1 cpm/μg DNA and 222.9 cpm/μg DNA and 206.4 cpm/μg DNA. For the same molecule, the “μg DNA/0.2” value [5] was 15.0 μg DNA/0.2 and 14.0 μg DNA/0.2 and 13.3 μg DNA/0.2, the “cpm/μg DNA” value [6] was 216.3 cpm/μg DNA and 189.8 cpm/μg DNA and the corrected cpm [6] was 3,114 cpm and 3,150 cpm. The cpm [6] was 3,139 cpm and 3,175 cpm, the “μg DNA/0.2” value [6] was 14.4 μg DNA/0.2 and 16.6 μg DNA/0.2 and the “cpm/μg DNA” value [7] was 270.1 cpm/μg DNA and 341.3 cpm/μg DNA and 287.9 ± 25.2 cpm/μg DNA. The corrected cpm [7] was 6,051 cpm and 10,170 cpm, the cpm [7] was 6,086 cpm and 10,205 cpm and the “μg DNA/0.2 mL” value [7] was 22.4 μg DNA/0.2 mL and 29.8 μg DNA/0.2 mL. The “μg DNA/0.2 mL” value (carbitol solution, 1.9 mg/kg transdermal (abdomen) 1 h before 2 μg TPA (back), 1.9 mg/kg) was 18.4 μg DNA/0.2 mL and 11.8 μg DNA/0.2 mL, the “cpm/μg DNA” value [8] was 64.8 cpm/μg DNA and 73.8 cpm/μg DNA and 69.3 ± 6.3 cpm/μg DNA and the corrected cpm [8] was 616 cpm and 649 cpm. The cpm [8] was 651 cpm and 684 cpm.
